Data on three compounds can be found in US11919871B1, “3-(3-chlorophenyl)-5-((2-isopropyl-5- methylphenoxy)methyl)-1,2,4-oxadiazole as an anti-cancer and antimicrobial compound” (KING FAISAL UNIVERSITY, priority 2023, dated 2024).

The subject of series [1] is human osteosarcoma cells (MG-63). The series can be described thus: Cytotoxicity by SRB assay. The format is cell-based. The following applies: MG-63 cells, 0.01 μM to 100 μM for 72 h. An excerpt: (§1) The anticancer activity of the described synthesized compounds against highly aggressive androgen-independent metastatic human prostate cancer cells (PC3) and osteosarcoma (MG-63) cells. The human prostate cancer cells (PC3) and human osteosarcoma cells (MG-63) were obtained from Nawah Scientific Inc. (Mokatam, Cairo, Egypt) and cultured in DMEM (Dulbecco's modified eagle's medium), Gibco, USA, supplemented with fetal bovine serum (FBS) at a concentration of 10% and 100 U/mL of penicillin and streptomycin (PS). The Cells were incubated at 37° C. in a humidified environment that contained 5% CO2.
(§2) Cells were seeded in 96-well plates as aliquots of 100 μL cell suspension and incubated in a complete media for 24 h. afterward, cells were treated with 3-(3-chlorophenyl)-5-((2-isopropyl-5-methylphenoxy)methyl)-1,2,4-oxadiazole at diverse concentrations ranging from 0.01 μM to 100 μM for 72 h. Then, cells were fixed at 4° C. for one hour with 150 μL of 10% trichloroacetic acid (TCA). […] Then, 150 μL of Tris pH 10.5 (10 mM) was added, and the absorbance was measured at 540 nm using a BMG LABTECH®-FLUOstar Omega microplate reader (Ortenberg, Germany). Half maximal inhibitory concentrations (IC50) values were calculated for each experiment using GraphPad Prism 6 software. […]
(§3) The inhibition was calculated using the following equation: Inhibition %=100−Average Viability
(In general: The SRB assay estimates cell density from bound dye.)

For series [2], the system named is human prostate cancer cells (PC3). The series can be described thus: Cytotoxicity by SRB assay. The class given is cell-based. The following applies: 0.01 μM to 100 μM for 72 h.
Excerpt: as §1, §2, §3

Another series relates to Bacillus cereus. Put plainly: Agar plate disc-diffusion, antibacterial inhibition zone. The following applies: 37° C., 48 h. The class given is cell-based. The procedure: (§4) The agar plate disc-diffusion method was applied. […] The discs were then placed onto the surface of agar plates (nutrient agar for bacteria and Sabouraud's dextrose agar for fungi) seeded with the test organism. Each plate contained 15 mL of the agar medium, previously seeded with 0.2 mL of the broth culture of each organism pregrown for 18 hours. The plates were incubated at 37° C. for 48 h, and 72 h for fungi. The inhibition zones were measured in mm. Discs impregnated with DMSO were used as a control, and its inhibition zone was subtracted from the tested compound actual inhibition zone.

Another series concerns Escherichia coli. Described as above. The following applies: 37° C., 48 h. The format is cell-based. On the procedure:
as §4

The next series relates to Pseudomonas aeruginosa. The description is as above. The format is cell-based. The following applies: 37° C., 48 h. On the procedure:
as §4

The test system of the next series is Staphylococcus aureus. The description is as above. The class given is cell-based. The following applies: 37° C., 48 h. The procedure: as §4
Another series concerns Aspergillus flavus. The series can be described thus: Agar plate disc-diffusion, antifungal inhibition zone. The following applies: 72 h for fungi. The class given is cell-based. The procedure:
as §4
On the technique in general: In agar diffusion tests the substance spreads into inoculated agar from a disc or well.

The test system of series [3] is Chrysosporium keratinophilum. The series is described as above. The format is cell-based. The following applies: 72 h for fungi. On the procedure:
(§5) The agar plate disc-diffusion method was applied. Sterilized filter papers (6 mm in diameter) were wetted with 10 μL of a solution of 3-(3-chlorophenyl)-5-((2-isopropyl-5-methylphenoxy)methyl)-1,2,4-oxadiazole (3) to be tested, containing 10 mg/mL in DMSO, and the discs were allowed to air dry. The discs were then placed onto the surface of agar plates (nutrient agar for bacteria and Sabouraud's dextrose agar for fungi) seeded with the test organism. Each plate contained 15 mL of the agar medium, previously seeded with 0.2 mL of the broth culture of each organism pregrown for 18 hours. The plates were incubated at 37° C. for 48 h, and 72 h for fungi. The inhibition zones were measured in mm. Discs impregnated with DMSO were used as a control, and its inhibition zone was subtracted from the tested compound actual inhibition zone.

A further series concerns different microbes. Put plainly: Antimicrobial activity, overall statement (agar plate disc-diffusion). The following applies: against different microbes (bacteria and fungi of Tables 1 and 2). The class given is cell-based. The procedure: as §5
Setting [4] is: A = concentration of comp. = 10,000 μL.
[5] abbreviates: B = concentration of comp. = 30,000 μL.
Where [6] appears, read: C = concentration of comp. = 50,000 μL.

Take `Cc1ccc(C(C)C)c(OCc2nc(-c3cccc(Cl)c3)no2)c1` [3-(3-chlorophenyl)-5-((2-isopropyl-5-methylphenoxy)methyl)-1,2,4-oxadiazole]: the antiproliferative activities result in [1] and in series [2] was “excellent antiproliferative activities” each time.
Consider `O=C(O)c1cn(C2CC2)c2cc(N3CCNCC3)c(F)cc2c1=O` [Cip., ciprofloxacin, reference compound], for which the inhibition zone came to 29 mm with Bacillus cereus (setting [4]); 30 mm in the series on Bacillus cereus (setting [5]); 42 mm in the series with Bacillus cereus (setting [6]); 30 mm in the series on Escherichia coli (setting [4]); 39 mm with Escherichia coli (setting [5]); 60 mm in the series on Escherichia coli (setting [6]). For the same compound, the inhibition zone with Pseudomonas aeruginosa (setting [4]) is 29 mm; with Pseudomonas aeruginosa (setting [5]), 30 mm; in the series with Pseudomonas aeruginosa (setting [6]) it was 53 mm; with Staphylococcus aureus (setting [4]), 43 mm; in the series with Staphylococcus aureus (setting [5]), 44 mm; in the series on Staphylococcus aureus (setting [6]), 53 mm. Moreover, the inhibition zone was 29 mm with Aspergillus flavus (setting [4]); 30 mm in the series with Aspergillus flavus (setting [5]); 42 mm in the series with Aspergillus flavus (setting [6]); 29 mm in series [3] (setting [4]); 30 mm in series [3] (setting [5]); 53 mm in [3] (setting [6]).
The compound `Cc1ccc(C(C)C)c(OCc2nc(-c3cccc(Cl)c3)no2)c1` [Compound 3, 3-(3-chlorophenyl)-5-((2-isopropyl-5-methylphenoxy)methyl)-1,2,4-oxadiazole] returned a melting point of 151 to 153 °C. In the series with Bacillus cereus (setting [4]), the inhibition zone is 30 mm. The compound also showed an inhibition zone in the series on Bacillus cereus (setting [5]) of 31 mm. In the series on Bacillus cereus (setting [6]), this compound gave an inhibition zone of 39 mm. The inhibition zone with Escherichia coli (setting [4]) came to 24 mm. In the series with Escherichia coli (setting [5]), this compound registered an inhibition zone of 35 mm. The inhibition zone with Escherichia coli (setting [6]) came to 50 mm. In the series on Pseudomonas aeruginosa (setting [4]), this compound showed an inhibition zone of 24 mm. This compound showed an inhibition zone in the series with Pseudomonas aeruginosa (setting [5]) of 28 mm. In the series with Pseudomonas aeruginosa (setting [6]), the inhibition zone came to 38 mm. Besides, the inhibition zone in the series with Staphylococcus aureus (setting [4]) was 13 mm. This compound returned an inhibition zone in the series on Staphylococcus aureus (setting [5]) of 17 mm. Besides, the inhibition zone with Staphylococcus aureus (setting [6]) was found to be 20 mm. The compound further displayed an inhibition zone in the series with Aspergillus flavus (setting [4]) of 18 mm. Also, in the series on Aspergillus flavus (setting [5]), the inhibition zone is 20 mm. This compound also returned an inhibition zone in the series with Aspergillus flavus (setting [6]) of 29 mm. For the same compound, the inhibition zone in [3] (setting [4]) came to 27 mm. Moreover, the inhibition zone in series [3] (setting [5]) is listed as 29 mm. This compound yielded an inhibition zone in [3] (setting [6]) of 48 mm. Further, the antimicrobial activities result with different microbes was “excellent antimicrobial activities”.

One may read the melting point as the temperature of the solid-liquid transition.
